Molecular target: T1, human APJ receptor (Homo sapiens, UniProt P35414)
T1 construct: expressed in transfected cells; host or cells: HEK293
T1 sequence (P35414 1-380): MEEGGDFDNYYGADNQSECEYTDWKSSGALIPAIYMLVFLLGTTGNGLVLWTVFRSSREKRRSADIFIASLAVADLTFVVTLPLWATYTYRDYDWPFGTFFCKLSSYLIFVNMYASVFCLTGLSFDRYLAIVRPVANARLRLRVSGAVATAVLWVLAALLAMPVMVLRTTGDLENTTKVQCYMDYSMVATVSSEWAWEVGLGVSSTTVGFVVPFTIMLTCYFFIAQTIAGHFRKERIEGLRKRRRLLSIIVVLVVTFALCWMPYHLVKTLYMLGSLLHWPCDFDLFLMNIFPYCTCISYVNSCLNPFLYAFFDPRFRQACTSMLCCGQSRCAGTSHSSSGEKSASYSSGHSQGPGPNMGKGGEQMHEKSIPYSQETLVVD
Assay: Intracellular cAMP accumulation assay (APJ hcAMP, HTRF)
Assay type: cell-based
Conditions: HEK293 cells stably expressing human APJ receptor; inhibition of forskolin-mediated cAMP production; read-out: APJ cAMP Potency range
Method: Intracellular cAMP Accumulation Assay
HEK293 cells stably expressing human APJ receptor were used to assess the activity of compounds. Cultured cells were detached and resuspended in the cAMP Homogeneous Time-Resolved Fluorescence (HTRF) assay buffer (Cisbio cat; #62AM4PEJ). The assay was performed in 384-well assay plates (Perkin-Elmer; cat #6008289) according to assay protocol provided by the manufacturer. Serial dilutions of a compound together with assay buffer containing […] IBMX and 2 μM forskolin were added to each well containing 5,000 cells and incubated for 30 minutes at room temperature. Subsequently, cAMP D2 reagent was added in the lysis buffer followed by the EuK antibody (Cisbio; cat #62AM4PEJ) and incubated for 60 min. The fluorescence emission ratio was measured using fluorometer. The intracellular cAMP concentrations (compound-stimulated inhibition of forskolin-mediated cAMP production) were calculated by extrapolation from a standard curve using known cAMP concentrations. The EC50 values were obtained by fitting the data to a sigmoidal concentration-response curve with variable slope. The maximal achievable inhibition of forskolin-induced cAMP levels (Ymax) for each compound was expressed as relative percentage of inhibition attained using pyroglutamated apelin-13 ((Pyr1)apelin-13) peptide, which was set to 100%.
The examples disclosed below were tested in the APJ in vitro assays described above and were found having human APJ cyclic AMP (hcAMP) activity. The EC50 value of each compound is presented at the end of the example description.
The biological activity of the exemplified compounds of this invention determined by the assay described above is shown at the end of each example.

EC50 | SMILES
0.01 to 10 nM | COc1cccc(OC)c1-n1c(CCC(C)C)nc(O)c(Cc2ccc(-n3cc(F)ccc3=O)cc2)c1=O [Example 52, 3-(2,6-dimethoxyphenyl)-5-{[4-(5-fluoro-2-oxo-1,2-dihydropyridin-1-yl)phenyl]methyl}-6-hydroxy-2-(3-methylbutyl)-3,4-dihydropyrimidin-4-one]
0.01 to 10 nM | COc1cccc(OC)c1-n1c(CCC(C)C)nc(O)c(Cc2ccc(-n3cc(Cl)ccc3=O)cc2)c1=O [Example 53, 5-{[4-(5-chloro-2-oxo-1,2-dihydropyridin-1-yl)phenyl]methyl}-3-(2,6-dimethoxyphenyl)-6-hydroxy-2-(3-methylbutyl)-3,4-dihydropyrimidin-4-one]
0.01 to 10 nM | COc1cccc(OC)c1-n1c(CCC(C)C)nc(O)c(Cc2ccc(-n3cc(C)ccc3=O)cc2)c1=O [Example 54, 3-(2,6-dimethoxyphenyl)-6-hydroxy-5-{[4-(5-methyl-2-oxo-1,2-dihydropyridin-1-yl)phenyl]methyl}-2-(3-methylbutyl)-3,4-dihydropyrimidin-4-one]
0.01 to 10 nM | COc1cccc(OC)c1-n1c(CCC2CC2)nc(O)c(Cc2ccc(-n3cc(C)ccc3=O)cc2)c1=O [Example 55, 2-(2-cyclopropylethyl)-3-(2,6-dimethoxyphenyl)-6-hydroxy-5-{[4-(5-methyl-2-oxo-1,2-dihydropyridin-1-yl)phenyl]methyl}-3,4-dihydropyrimidin-4-one]
0.01 to 10 nM | COc1cccc(OC)c1-n1c(CCC2CC2)nc(O)c(Cc2ccc(-n3cc(F)ccc3=O)cc2)c1=O [Example 56, 2-(2-cyclopropylethyl)-3-(2,6-dimethoxyphenyl)-5-{[4-(5-fluoro-2-oxo-1,2-dihydropyridin-1-yl)phenyl]methyl}-6-hydroxy-3,4-dihydropyrimidin-4-one]
0.01 to 10 nM | COc1cccc(OC)c1-n1c(CCC2CC2)nc(O)c(Cc2ccc(-n3cc(Cl)ccc3=O)cc2)c1=O [Example 57, 5-{[4-(5-chloro-2-oxo-1,2-dihydropyridin-1-yl)phenyl]methyl}-2-(2-cyclopropylethyl)-3-(2,6-dimethoxyphenyl)-6-hydroxy-3,4-dihydropyrimidin-4-one]
0.01 to 10 nM | COc1cccc(OC)c1-n1c(COC(C)C)nc(O)c(Cc2ccc(-n3cc(C)ccc3=O)cc2)c1=O [Example 58, 3-(2,6-dimethoxyphenyl)-6-hydroxy-5-{[4-(5-methyl-2-oxo-1,2-dihydropyridin-1-yl)phenyl]methyl}-2-[(propan-2-yloxy)methyl]-3,4-dihydropyrimidin-4-one]
0.01 to 10 nM | COc1cccc(OC)c1-n1c(COC(C)C)nc(O)c(Cc2ccc(-n3cc(F)ccc3=O)cc2)c1=O [Example 59, 3-(2,6-dimethoxyphenyl)-5-{[4-(5-fluoro-2-oxo-1,2-dihydropyridin-1-yl)phenyl]methyl}-6-hydroxy-2-[(propan-2-yloxy)methyl]-3,4-dihydropyrimidin-4-one]
0.01 to 10 nM | COc1cccc(OC)c1-n1c(COC(C)C)nc(O)c(Cc2ccc(-n3cc(Cl)ccc3=O)cc2)c1=O [Example 60, 5-{[4-(5-chloro-2-oxo-1,2-dihydropyridin-1-yl)phenyl]methyl}-3-(2,6-dimethoxyphenyl)-6-hydroxy-2-[(propan-2-yloxy)methyl]-3,4-dihydropyrimidin-4-one]
0.01 to 10 nM | CCn1ccc(-c2nc(=O)c(Cc3ccc(-c4ccncc4C)cc3)c(O)n2-c2c(OC)cccc2OC)n1 [Example 62, 1-(2,6-dimethoxyphenyl)-2-(1-ethyl-1H-pyrazol-3-yl)-6-hydroxy-5-{[4-(3-methylpyridin-4-yl)phenyl]methyl}-1,4-dihydropyrimidin-4-one]
0.01 to 10 nM | CCn1ccc(-c2nc(=O)c(Cc3ccc(-c4ccnc(F)c4C)cc3)c(O)n2-c2c(OC)cccc2OC)n1 [Example 63, 1-(2,6-dimethoxyphenyl)-2-(1-ethyl-1H-pyrazol-3-yl)-5-{[4-(2-fluoro-3-methylpyridin-4-yl)phenyl]methyl}-6-hydroxy-1,4-dihydropyrimidin-4-one]
0.01 to 10 nM | CCCCc1nc(=O)c(Cc2ccc(-c3ccc(F)nc3C)cc2)c(O)n1-c1c(CC)cccc1CC [Example 64, 2-butyl-1-(2,6-diethylphenyl)-5-{[4-(6-fluoro-2-methylpyridin-3-yl)phenyl]methyl}-6-hydroxy-1,4-dihydropyrimidin-4-one]
0.01 to 10 nM | CCCCc1nc(=O)c(Cc2ccc(-c3ccc(F)nc3)cc2)c(O)n1-c1c(CC)cccc1CC [Example 65, 2-butyl-1-(2,6-diethylphenyl)-5-{[4-(6-fluoropyridin-3-yl)phenyl]methyl}-6-hydroxy-1,4-dihydropyrimidin-4-one]
0.01 to 10 nM | CCCCc1nc(=O)c(Cc2ccc(-c3ccnc(F)c3C)cc2)c(O)n1-c1c(CC)cccc1CC [Example 66, 2-butyl-1-(2,6-diethylphenyl)-5-{[4-(2-fluoro-3-methylpyridin-4-yl)phenyl]methyl}-6-hydroxy-1,4-dihydropyrimidin-4-one]
0.01 to 10 nM | CCCCc1nc(=O)c(Cc2ccc(C3CC3)cc2)c(O)n1-c1c(CC)cccc1CC [Example 67, 2-butyl-5-[(4-cyclopropylphenyl)methyl]-1-(2,6-diethylphenyl)-6-hydroxy-1,4-dihydropyrimidin-4-one]
10 to 100 nM | CCCCc1nc(=O)c(Cc2ccc(-c3ccccc3)cc2)c(O)n1-c1c(CC)cccc1CC [Example 68, 5-({[1,1′-biphenyl]-4-yl}methyl)-2-butyl-1-(2,6-diethylphenyl)-6-hydroxy-1,4-dihydropyrimidin-4-one]
0.01 to 10 nM | CCc1cccc(CC)c1-n1c(-c2ccn(C)n2)nc(=O)c(Cc2ccc(-c3ccc(F)nc3C)c(F)c2)c1O [Example 69, 1-(2,6-diethylphenyl)-5-{[3-fluoro-4-(6-fluoro-2-methylpyridin-3-yl)phenyl]methyl}-6-hydroxy-2-(1-methyl-1H-pyrazol-3-yl)-1,4-dihydropyrimidin-4-one]
0.01 to 10 nM | CCc1cccc(CC)c1-n1c(-c2ccn(C)n2)nc(=O)c(Cc2ccc(-c3ccncc3C)c(F)c2)c1O [Example 70, 1-(2,6-diethylphenyl)-5-{[3-fluoro-4-(3-methylpyridin-4-yl)phenyl]methyl}-6-hydroxy-2-(1-methyl-1H-pyrazol-3-yl)-1,4-dihydropyrimidin-4-one]
0.01 to 10 nM | CCc1cccc(CC)c1-n1c(-c2ccn(C)n2)nc(=O)c(Cc2ccc(-c3ccnc(F)c3C)c(F)c2)c1O [Example 71, 1-(2,6-diethylphenyl)-5-{[3-fluoro-4-(2-fluoro-3-methylpyridin-4-yl)phenyl]methyl}-6-hydroxy-2-(1-methyl-1H-pyrazol-3-yl)-1,4-dihydropyrimidin-4-one]
0.01 to 10 nM | CCc1cccc(CC)c1-n1c(-c2csc(C)n2)nc(=O)c(Cc2ccc(-c3ccc(F)nc3C)c(F)c2)c1O [Example 72, 1-(2,6-diethylphenyl)-5-{[3-fluoro-4-(6-fluoro-2-methylpyridin-3-yl)phenyl]methyl}-6-hydroxy-2-(2-methyl-1,3-thiazol-4-yl)-1,4-dihydropyrimidin-4-one]
0.01 to 10 nM | CCc1cccc(CC)c1-n1c(-c2nc(C)cs2)nc(=O)c(Cc2ccc(-c3ccnc(F)c3C)c(F)c2)c1O [Example 73, 1-(2,6-diethylphenyl)-5-{[3-fluoro-4-(2-fluoro-3-methylpyridin-4-yl)phenyl]methyl}-6-hydroxy-2-(4-methyl-1,3-thiazol-2-yl)-1,4-dihydropyrimidin-4-one]
0.01 to 10 nM | CCc1cccc(CC)c1-n1c(-c2csc(C)n2)nc(=O)c(Cc2ccc(-c3ccncc3C)c(F)c2)c1O [Example 74, 1-(2,6-diethylphenyl)-5-{[3-fluoro-4-(3-methylpyridin-4-yl)phenyl]methyl}-6-hydroxy-2-(2-methyl-1,3-thiazol-4-yl)-1,4-dihydropyrimidin-4-one]
0.01 to 10 nM | CCc1cccc(CC)c1-n1c(-c2nc(C)cs2)nc(=O)c(Cc2ccc(-c3ccncc3C)c(F)c2)c1O [Example 75, 1-(2,6-diethylphenyl)-5-{[3-fluoro-4-(3-methylpyridin-4-yl)phenyl]methyl}-6-hydroxy-2-(4-methyl-1,3-thiazol-2-yl)-1,4-dihydropyrimidin-4-one]

Same assay, conditions: HEK293 cells stably expressing human APJ receptor; inhibition of forskolin-mediated cAMP production; read-out: Human APJ cAMP EC50 potency range

EC50 | SMILES
0.01 to 10 nM | CCc1cccc(CC)c1-n1c(-c2ccn(C3CC3)n2)nc(=O)c(Cc2ccc(-c3ccnc(F)c3C)c(F)c2)c1O [Example 61, 2-(1-cyclopropyl-1H-pyrazol-3-yl)-1-(2,6-diethylphenyl)-5-(3-fluoro-4-(2-fluoro-3-methylpyridin-4-yl)benzyl)-6-hydroxypyrimidin-4(1H)-one]
